Values after ≈ are worked out from the molar mass of the structure shown. Like-named read-outs stand apart in the source and are kept apart here.
Assays:
Type in all cases: cell-based
[1] = tested on: A. baumanii clinical isolates; assay: Broth microdilution MIC, clinical isolate strains (NAUTICA); conditions: clinical isolates, one table line per isolate; unit assumed
Text: (§1) All clinical isolates tested were from The North American Urinary Tract Infection Collaborative Alliance (NAUTICA) which is a UTI surveillance study involving 40 medical centres (30 from the US and 10 from Canada). Each centre submitted up to 50 consecutive outpatient midstream urine isolates. All isolates were deemed significant urinary tract pathogens by individual laboratory criteria and identified to the species level by each laboratory's existing protocol. Isolates were transported to the coordinating laboratory (Health Sciences Centre, Winnipeg, Canada) on charcoal swabs. Only one isolate per patient was accepted. Upon receipt, isolates were cultured by the coordinating laboratory, stocked in skim milk, and stored at −80° C. awaiting reference antibiotic susceptibility testing. Elementary demographic information was also compiled for each isolate. Isolates were selected randomly from the above pool to represent 18 different species of Enterobacteriaceae and non-Enterobacteriaceae. An average of 5 strains of each species were tested for a total of 93 organisms. In addition, 23 reference (ATCC) [both gram negative and gram positive] strains were tested.
(§2) Susceptibilities to the compounds were determined using the National Committee for Clinical Laboratory Standards (NCCLS) M7-A6 broth microdilution method. […] DMSO controls were incorporated into the panel to mimic the quantity of DMSO used in dissolving some of the compounds at the higher concentrations. Each final panel well volume was 100 μl with a bacterial inoculum of 5×10^5 colony forming units (CFU)/ml. Panels were read following 16 to 20 hours of incubation at 35° C. in ambient air. The minimum inhibitory concentration (MIC) was defined as the lowest concentration of antimicrobial inhibiting visible growth. Quality control (QC) was performed using four ATCC QC organisms that were run with every batch set up to insure reproducibility.

[2] = tested on: P. mirabilis clinical isolates; assay: as above; conditions: clinical isolates, one table line per isolate; unit assumed
Text: as §1, §2

[3] = tested on: K. oxytoca clinical isolates; assay: as above; conditions: clinical isolates, one table line per isolate; unit assumed
Text: as §1, §2

[4] = tested on: M. morganii clinical isolates; assay: as above; conditions: clinical isolates, one table line per isolate; unit assumed
Text: as §1, §2

[5] = tested on: S. marcescens clinical isolates; assay: as above; conditions: clinical isolates, one table line per isolate; unit assumed
Text: as §1, §2

[6] = tested on: E. aerogenes clinical isolates; assay: as above; conditions: clinical isolates, one table line per isolate; unit assumed
Text: as §1, §2

[7] = tested on: S. maltophilia clinical isolates; assay: as above; conditions: clinical isolates, one table line per isolate; unit assumed
Text: as §1, §2

[8] = tested on: C. freundii clinical isolates; assay: as above; conditions: clinical isolates, one table line per isolate; in µg/mL (unit assumed)
Text: as §1, §2

[9] = tested on: K. pneumoniae clinical isolates; assay: as above; conditions: clinical isolates, one table line per isolate; unit assumed
Text: as §1, §2

[10] = tested on: C. koseril clinical isolates; assay: as above; conditions: clinical isolates, one table line per isolate; unit assumed
Text: as §1, §2

[11] = tested on: P. vulgaris clinical isolates; assay: as above; conditions: clinical isolates, one table line per isolate; unit assumed
Text: as §1, §2

[12] = tested on: B. cepacia clinical isolates; assay: as above; conditions: clinical isolates, one table line per isolate; unit assumed
Text: as §1, §2

[13] = tested on: P. retgerri clinical isolates; assay: as above; conditions: clinical isolates, one table line per isolate; unit assumed
Text: as §1, §2

[14] = tested on: E. coli clinical isolates; assay: as above; conditions: clinical isolates, one table line per isolate; unit assumed
Text: as §1, §2

[15] = tested on: C. amalonaticus clinical isolates; assay: as above; conditions: clinical isolates, one table line per isolate; unit assumed
Text: as §1, §2

[16] = tested on: E. cloacae clinical isolates; assay: as above; conditions: clinical isolates, one table line per isolate; unit assumed
Text: as §1, §2

[17] = tested on: P. stuartii clinical isolates; assay: as above; conditions: clinical isolates, one table line per isolate; unit assumed
Text: as §1, §2

[18] = tested on: S. liquifaciens clinical isolates; assay: as above; conditions: clinical isolates, one table line per isolate; unit assumed
Text: as §1, §2

[19] = tested on: S. maltophilia ATCC 13637; assay: Broth microdilution MIC, ATCC strains; conditions: Stenotrophomonas maltophilia
Text: as §1, §2

S. marcescens ATCC 8100 = assay: Broth microdilution MIC, ATCC strains; conditions: Serratia marcescens
Text: as §1, §2

K. oxytoca ATCC 49131 = assay: Broth microdilution MIC, ATCC strains; conditions: Klebsiella oxytoca
Text: as §1, §2

MRSA ATCC 33591 = assay: Broth microdilution MIC, ATCC strains; conditions: Staphylococcus aureus; MRSA ATCC 33591; read-out: MIC (growth inhibition, microdilution method)
Text: as §1, §2

[20] = tested on: S. liquefaciens ATCC 27592; assay: Broth microdilution MIC, ATCC strains; conditions: read-out: MIC (growth inhibition, microdilution method)
Text: as §1, §2

[21] = tested on: S. saprophyticus ATCC 15305; assay: Broth microdilution MIC, ATCC strains; conditions: Staphylococcus saprophyticus, ATCC15305; S. saprophyticus ATCC 15305; read-out: MIC (growth inhibition, microdilution method)
Text: as §1, §2

E. coli ATCC 25922 = assay: Broth microdilution MIC, ATCC strains; conditions: Escherichia coli
Text: as §1, §2

S. simulans ATCC 27848 = assay: Broth microdilution MIC, ATCC strains; conditions: Staphylococcus simulans, ATCC27848, read-out: MIC (growth inhibition, microdilution method)
Text: as §1, §2

S. aureus ATCC 29213 = assay: Broth microdilution MIC, ATCC strains; conditions: for MIC: Staphylococcus aureus, ATCC29213, S. aureus ATCC 29213, read-out: MIC (growth inhibition, microdilution method)
Text: as §1, §2

E. faecalis ATCC 29212 = assay: Broth microdilution MIC, ATCC strains; conditions: Enterococcus faecalis, read-out: MIC (growth inhibition, microdilution method)
Text: as §1, §2

K. pneumoniae ATCC 13883 = assay: Broth microdilution MIC, ATCC strains; conditions: Klebsiella pneumoniae
Text: as §1, §2

[22] = tested on: S. epidermidis ATCC 14990; assay: Broth microdilution MIC, ATCC strains; conditions: Staphylococcus epidermidis, ATCC14990; S. epidermidis ATCC 14990; read-out: MIC (growth inhibition, microdilution method)
Text: as §1, §2

P. rettgeri CAP = assay: Broth microdilution MIC, reference strains; conditions: Providencia rettgeri, read-out: MIC (growth inhibition, microdilution method)
Text: as §1, §2

[23] = ATCC29212, E. faecalis ATCC 29212
[24] = ATCC29212, E. faecalis, ATCC number not given

Row | SMILES | MIC, A. BAUMANII [1] [µg/mL] | MIC, P. MIRABILIS [2] [µg/mL] | MIC, K. OXYTOCA [3] [µg/mL] | MIC, M. MORGANII [4] [µg/mL] | MIC, S. MARCESCENS [5] [µg/mL] | MIC, E. AEROGENES [6] [µg/mL] | MIC, S. MALTOPHILIA [7] [µg/mL] | MIC, C. FREUNDII [8] | MIC, K. PNEUMONIAE [9] [µg/mL] | MIC, C. KOSERI [10] [µg/mL] | MIC, P. VULGARIS [11] [µg/mL] | MIC, B. CEPACIA [12] [µg/mL] | MIC, P. RETTGERI [13] [µg/mL] | MIC, E. COLI [14] [µg/mL] | MIC, C. AMALONATICUS [15] [µg/mL] | MIC, E. CLOACAE [16] [µg/mL] | MIC, P. STUARTII [17] [µg/mL] | MIC, S. LIQUEFACIENS [18] [µg/mL] | MIC (MRSA ATCC 33591) [µg/mL] | MIC [21] [µg/mL] | other results
1 | Cn1nnc(-c2cc(C(=O)O)sc2C(=O)O)n1 [DNM-112, 3-(2-Methyl-2H-tetrazol-5-yl)-thiophene-2,5-dicarboxylic acid] | > 256 | > 256 | > 256 | > 256 | > 256 | > 256 | > 256 | >256 | > 256 | > 256 | > 256 | > 256 | > 256 | > 256 | > 256 | > 256 | > 256 | > 256 | 16 (≈ 62.9 µM) | 64 (≈ 252 µM) | MIC ([19]; ATCC13637, read-out: MIC (growth inhibition, microdilution method)): > 256 µg/mL; MIC (S. marcescens ATCC 8100; ATCC8100, read-out: MIC (growth inhibition, microdilution method)): > 256 µg/mL; MIC (K. oxytoca ATCC 49131; ATCC49131, read-out: MIC (growth inhibition, microdilution method)): > 256 µg/mL; MIC [20]: > 256 µg/mL; MIC (E. coli ATCC 25922; ATCC25922, read-out: MIC (growth inhibition, microdilution method)): > 256 µg/mL; MIC (S. simulans ATCC 27848): 8 µg/mL (≈ 31.5 µM); MIC (S. aureus ATCC 29213): 16 µg/mL (≈ 62.9 µM); MIC (E. faecalis ATCC 29212; [23]): 8 µg/mL (≈ 31.5 µM); MIC (E. faecalis ATCC 29212; [24]): 8 µg/mL (≈ 31.5 µM); MIC (K. pneumoniae ATCC 13883; ATCC13883, read-out: MIC (growth inhibition, microdilution method)): > 256 µg/mL; MIC [22]: 16 µg/mL (≈ 62.9 µM); MIC (P. rettgeri CAP): > 256 µg/mL
2 | O=C(O)c1cc(-c2nnn[nH]2)c(-c2ccc(F)cc2)s1 [DNM-121, 5-(4-Fluoro-phenyl)-4-(1H-tetrazol-5-yl)-thiophene-2-carboxylic acid] | 64 (≈ 220 µM) | 64 (≈ 220 µM) | 64 (≈ 220 µM) | 64 (≈ 220 µM) | 64 (≈ 220 µM) | 64 (≈ 220 µM) | 64 (≈ 220 µM) | 64 | 64 (≈ 220 µM) | 64 (≈ 220 µM) | 64 (≈ 220 µM) | 64 (≈ 220 µM) | 64 (≈ 220 µM) | 64 (≈ 220 µM) | 64 (≈ 220 µM) | 64 (≈ 220 µM) | 64 (≈ 220 µM) | 64 (≈ 220 µM) | 64 (≈ 220 µM) | 64 (≈ 220 µM) | MIC ([19]; ATCC13637, S. maltophilia ATCC 13637, read-out: MIC (growth inhibition, microdilution method)): 64 µg/mL (≈ 220 µM); MIC (S. marcescens ATCC 8100; ATCC8100, S. marcescens ATCC 8100, read-out: MIC (growth inhibition, microdilution method)): 64 µg/mL (≈ 220 µM); MIC (K. oxytoca ATCC 49131; ATCC49131, K. oxytoca ATCC 49131, read-out: MIC (growth inhibition, microdilution method)): 64 µg/mL (≈ 220 µM); MIC ([20]; S. liquefaciens ATCC 27592): 64 µg/mL (≈ 220 µM); MIC (E. coli ATCC 25922; ATCC25922, E. coli ATCC 25922, read-out: MIC (growth inhibition, microdilution method)): 64 µg/mL (≈ 220 µM); MIC (S. simulans ATCC 27848): 64 µg/mL (≈ 220 µM); MIC (growth inhibition, microdilution method) (S. aureus ATCC 29213; S. aureus ATCC 29213): 32 µg/mL (≈ 110 µM); MIC (S. aureus ATCC 29213): 64 µg/mL (≈ 220 µM); MIC (E. faecalis ATCC 29212; [23]): 8 µg/mL (≈ 27.6 µM); MIC (E. faecalis ATCC 29212; [24]): 8 µg/mL (≈ 27.6 µM); MIC (K. pneumoniae ATCC 13883; ATCC13883, K. pneumoniae ATCC 13883, read-out: MIC (growth inhibition, microdilution method)): 64 µg/mL (≈ 220 µM); MIC [22]: 64 µg/mL (≈ 220 µM); MIC (P. rettgeri CAP; P. rettgeri (CAP in Table 1)): 64 µg/mL (≈ 220 µM)

— patent US8835476B2, “Synthesis of novel antimicrobials” (priority 2005, dated 2014)
